Assay results reported in article PMC7725785, “TRIB3 promotes MYC-associated lymphoma development through suppression of UBE3B-mediated MYC degradation” (Nature Communications, 2020).
Where a SMILES comes first, the peptide text is derived from it. [ ]: non-standard residue; d: D form.

Key:
TRIB3 and MYC = experiment: SPR kinetic interaction of TRIB3 and MYC proteins with or without CM4; assay type: binding; conditions: in vitro, result in words
Procedure: (§1) Binding kinetics between MYC and UBE3B, TRIB3 and the indicated α helical peptides, MAX and the indicated α helical peptides, or MYC and MAX were analyzed using a BIAcore T200 instrument (GE Healthcare, CA, USA) as described previously. Briefly, binding reactions were performed in HBS-EP buffer (GE Healthcare) at pH 7.4. TRIB3/MYC/MAX protein was coated on the flow cell of a CM5 sensor chip by direct immobilization. Another flow cell, not coated with an immobilized protein, was used to evaluate nonspecific binding. The binding analyses were performed at a flow rate of 25 μl/min at 25 °C. A total of 0–200 nM peptide or 0–500 nM TRIB3 protein was passed over the surface of the sensor chip. The association rate constant (Ka) and the dissociation rate constant (Kd) were calculated according to the BIA evaluation software. The dissociation constant (KD) was determined by Kd/Ka.

MAX and MYC = experiment: SPR kinetic interaction of MAX and MYC proteins with indicated peptides (CM1-CM4); assay type: binding; conditions: result in words
Procedure: as §1

MAX protein = experiment: SPR kinetic interaction of α-helical peptides (CM1-CM4) with MAX; assay type: binding; conditions: result in words
Procedure: as §1

MYC and MAX = experiment: Duolink PLA of MYC and MAX colocalization in Raji cells; assay type: cell-based, human; conditions: peptide 4 µM 12 hr, MG132 20 μM 6 hr, result in words
Procedure: A total of 1 × 10^6 cells were seeded overnight in a six-well plate. The next day, cells were collected, fixed in 4% paraformaldehyde solution, permeabilized with 0.5% Triton-X100, blocked with Duolink® Blocking Solution, and probed with antibodies directed against MYC (R&D, NB600-302, 1:100), TRIB3 (Novus, H00057761-M03, 1:100), UBE3B (Invitrogen, PA5-59390, 1:100), and MAX (Cell Signaling Technology, #4739, 1:100). The cells were then treated with the Duolink In Situ Red Starter Mouse/Rabbit kit (Sigma Aldrich, DUO92101-1KT) according to the manufacturer’s instructions. Images were captured with an OLYMPUS confocal microscope.

[1] = tested on: MYC polyubiquitination by UBE3B; experiment: In vitro ubiquitination assay of MYC (UBE3B, UBCH3); assay type: biochemical; conditions: result in words
Procedure: In vitro ubiquitination was performed according to the protocol provided with the Ubiquitination Kit (UW9920, BioMol) with some modifications. Briefly, MYC-His, UBE3B-His, UBE3B-(R346Q)-His, UBE3B-(C1036A)-His, and UBE3B-C-His were expressed in free-style 293 cells and purified by a Ni2+-NTA resin (GE). The assays were carried out at 37 °C in a 50-μl reaction mixture containing 20 U/ml inorganic pyrophosphatase (Sigma Aldrich), 5 mM dithiothreitol, 5 mM Mg-ATP, 100 nM E1, […], […], […], and […]. […] To obtain accurate results, the PAGE gel was run for a relatively long time until protein bands smaller than 40 kDa ran off the bottom line of the gel as judged by the protein molecular weight marker. Then, the protein was transferred to a polyvinylidene difluoride membrane (PVDF). To reduce the background noise, an anti-MYC antibody (Cell Signaling Technology, 1:1000) was used to detect MYC polyubiquitination via western blot analysis instead of the HRP-Streptavidin detection system recommended by the kit for the detection of biotinylated ubiquitin.

MYC and UBE3B = experiment: In vitro coimmunoprecipitation of purified MYC, UBE3B and TRIB3 with or without CM4; assay type: binding; conditions: purified His-MYC, His-UBE3B and GST-TRIB3 with or without CM4; result in words
Procedure: Co-IP experiments were performed as described in the section of immunoprecipitation.

TRIB3 protein = biological target: T1, TRIB3 protein (Homo sapiens, UniProt Q96RU7); experiment: SPR kinetic interaction of α-helical peptides (CM1-CM4) with TRIB3; assay type: binding
T1 construct: GST; purchased Sinobiological Inc. 10731-H09B
T1 sequence (Q96RU7 1-358): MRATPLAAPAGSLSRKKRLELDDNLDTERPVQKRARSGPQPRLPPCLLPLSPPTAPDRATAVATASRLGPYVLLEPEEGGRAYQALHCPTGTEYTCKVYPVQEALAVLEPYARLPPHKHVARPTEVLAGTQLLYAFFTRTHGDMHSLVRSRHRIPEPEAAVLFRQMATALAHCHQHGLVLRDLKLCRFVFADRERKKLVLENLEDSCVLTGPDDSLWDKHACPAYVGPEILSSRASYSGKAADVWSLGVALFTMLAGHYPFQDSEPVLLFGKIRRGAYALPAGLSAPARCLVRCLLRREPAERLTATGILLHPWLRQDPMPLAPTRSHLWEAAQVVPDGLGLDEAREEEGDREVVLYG
Procedure: as §1

Compound: CC(C)C[C@@H](NC(=O)[C@@H](CCC(N)=O)NC(=O)[C@@H](CCC(=O)O)NC(=O)[C@@H](CC(C)C)NC(=O)[C@@H](CCCCN)NC(=O)[C@@H](Cc1c[nH]cn1)NC(=O)[C@@H](CCCCN)NC(=O)[C@@H](CC(C)C)NC(=O)[C@@H](CCC(N)=O)NC(=O)[C@@H](CCC(=O)O)NC(=O)[C@@H](CCCNC(=N)N)NC(=O)[C@@H](CCCNC(=N)N)NC(=O)[C@H](N)CCCCN)C(=O)N[C@H](CCCNC(=N)N)C(=O)O [CM4] (H-[dK][dR][dR][dE][dQ][dL][dK][dH][dK][dL][dE][dQ][dL][dR]-OH; N-terminus and C-terminus assumed)
- effect on the binding affinity of TRIB3 and MYC (TRIB3 and MYC): decreased the binding affinity of TRIB3 and MYC
- effect on the binding of MYC and MAX (MAX and MYC): not
- ability to bind MAX (MAX protein): not
- colocalization of MYC and MAX in MG132-treated Raji cells (MYC and MAX): did not affect the colocalization of MYC and MAX
- polyubiquitination of MYC in vitro [1]: restored the polyubiquitination of MYC
- binding of MYC and UBE3B in vitro (MYC and UBE3B): increased the binding of MYC and UBE3B
- Kd (TRIB3 protein; BIAcore T200, HBS-EP pH 7.4, 25 °C, printed in Fig. 6a): 76.4 nM
- kon (TRIB3 protein; BIAcore T200, HBS-EP pH 7.4, 25 °C, printed in Fig. 6a, read-out: ka): 1.01e+06 M⁻¹ s⁻¹
- binding affinity for TRIB3 (TRIB3 protein; result in words): high binding affinity
